What was measured:
[1] = tested on: PBG-1 iPSCs; assay: Directed differentiation of PBG-1 to preMKs and MKs on a recombinant Laminin-521 matrix compared with Collagen IV, flow cytometry; assay type: cell-based, human; conditions: 3 days of Phase III (Day 6+6+3); preMKs from Laminin-521 or Collagen IV cultures
Method: FIG. 23A, FIG. 23B, and FIG. 23C depict use of recombinant Laminin 521 to support production and release of megakaryocytic progenitors in Phase II of directed differentiation of PBG1 cells. FIG. 23A depicts representative flow cytometric data from Phase II of PBG1 differentiation cultures utilizing a supportive matrix of 4.2 ug/cm^2 human Collagen IV. FIG. 23B depicts representative flow cytometric data from Phase II of PBG1 differentiation cultures utilizing a supportive matrix of 0.13 ug/cm^2 recombinant human Laminin 521. FIG. 23C depicts the cumulative yields of released preMKs (i.e. viable CD41+CD43+CD14−) per 6-well equivalent (i.e. 2 ml of media, 9.5 cm^2 surface area) between day 6+4 and 6+8 of Phase II directed differentiation cultures initiated with PBG1 iPSCs, utilizing a supportive matrix of 4.2 ug/cm^2 human Collagen IV or 0.13 ug/cm^2 recombinant human Laminin 521.
FIG. 25A and FIG. 25B show flow cytometric subset breakdowns of Phase III (Day 6+6+3) cultures. […] Non-MKs are CD61−, Immature MKs are CD61+CD42a−CD42b−, Apoptotic MKs are CD61+CD42a+CD42b−, and Mature MKs are CD61+CD42a+CD42b+.
Collagen IV is purified from human placental material and is only available as a Research Use Only reagent. […]

[2] = tested on: PBG1 iPSCs; assay: Phase I directed differentiation of PBG1 iPSCs to hemogenic endothelium, immunofluorescence staining of CD31 and CD34; assay type: cell-based, human; conditions: Laminin 521 matrix, versus control without WNT agonist
Text: FIG. 26A, FIG. 26B, and FIG. 26C depict immunofluorescence microscopy images of Day 6 Phase I cultures on Laminin 521. FIG. 26A depicts a control culture without WNT agonist.

[3] = tested on: PBG1 iPSCs; conditions: 0.6 uM in the first 48 hours of Phase I; Day 6+4; Laminin 521 matrix; versus control

Laminin-521: recombinant human laminin 521, supportive matrix replacing Collagen IV for directed differentiation
Proportion of CD61+ cells co-expressing CD42a and CD42b in Phase III versus Collagen IV [1]: found to be similar

Cc1c[nH]c(-c2cnc(NCCNc3ccc(C#N)cn3)nc2-c2ccc(Cl)cc2Cl)n1 [CHIR99021]
Phase I differentiation efficiency at day 6 (CD31 and CD34 staining) ([2]; 6 uM for the first 48 hours of differentiation only): dramatic increase

CHIR98014
Phase I differentiation efficiency at day 6 (CD31 and CD34 staining) ([2]; 0.6 uM for the first 48 hours of differentiation only): dramatic increase | Phase II output of preMKs (visual estimation of the number of CD41+ cells) [3]: higher output during Phase II
